In patent publication US20080318933A1, “5-Sulfonyl-1-Piperidinyl Substituted Indole Derivatives as 5-Ht6 Receptor Antagonists for the Treatment of Cns Disorders” (Glaxo Group Limited, priority 2004, published 2008):
Where a name gives a salt, the structure may show the parent alone.

target: T1, human cloned 5-HT6 receptors (Homo sapiens, UniProt P50406); assay: Cyclase assay (cAMP production in membranes of HeLa 5HT6 cells, 5-HT stimulated); assay type: biochemical; conditions: 5-HT at 4xEC50, functional Ki by Cheng-Prusoff, read-out: pKi values (converted)
T1 construct: expressed in transfected cells; host or cells: HeLa cells expressing cloned human 5-HT6 receptor (membranes)
T1 sequence (P50406 whole entry): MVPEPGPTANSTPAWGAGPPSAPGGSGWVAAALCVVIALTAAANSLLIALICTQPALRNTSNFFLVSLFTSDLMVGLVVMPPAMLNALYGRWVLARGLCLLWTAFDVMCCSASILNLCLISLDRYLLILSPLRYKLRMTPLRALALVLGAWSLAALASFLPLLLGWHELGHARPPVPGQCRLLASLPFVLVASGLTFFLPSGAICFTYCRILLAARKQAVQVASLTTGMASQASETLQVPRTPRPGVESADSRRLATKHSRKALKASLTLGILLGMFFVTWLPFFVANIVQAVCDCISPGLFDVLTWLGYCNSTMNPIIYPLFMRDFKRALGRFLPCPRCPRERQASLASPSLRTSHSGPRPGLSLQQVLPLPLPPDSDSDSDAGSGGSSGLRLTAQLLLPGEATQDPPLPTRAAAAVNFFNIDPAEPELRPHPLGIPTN
Experimental: 0.5 μl of test compound in 100% dimethylsulfoxide (DMSO) was added to a white, solid 384 well assay plate (for dose response measurements the top of the concentration range is 7.5 μM final). 10 μl of washed membranes of HeLa 5HT6 cells (for preparation see WO 98/27081) in basic buffer (50 mM HEPES pH 7.4 (KOH), 10 mM MgCl2, 100 mM NaCl, 10 μM 3-isobutyl-1-methylxanthine (IBMX) (Sigma-Aldrich)) was added to all wells followed by 10 μl 2×ATP buffer (i.e. basic buffer containing 3 mM ATP) with 5-HT (at a concentration equivalent to a dose response of 4×EC50). The resultant mixture was then incubated at room temperature for 30-45 minutes to allow cAMP production. cAMP production was then measured using the DiscoveRX™ HitHunter™ chemiluminescence cAMP assay kit (DiscoveRx Corporation, 42501 Albrae Street, Fremont, Calif. 94538; Product Code: 90-0004L) or any other suitable cAMP measurement assay.
IC50 values were estimated from arbitrary designated unit (ADU) measurements from a Perkin Elmer Viewlux instrument using a four parameter logistic curve fit within EXCEL (Bowen, W. P. and Jerman, J. C. (1995), Nonlinear regression using spreadsheets. Trends in Pharmacol. Sci., 16, 413-417). Functional Ki values were calculated using the method of Cheng, Y. C. and Prussof, W. H. (Biochemical Pharmacol (1973) 22 3099-3108). plC50 and fpKi are the negative log 10 of the molar IC50 and functional Ki respectively.

Row | Compound | Ki
1 | O=S(=O)(c1cccc(F)c1)c1ccc2c(c1)CCN2C1CCNCC1 [Example E8, 5-[(3-Fluorophenyl)sulfonyl]-1-(4-piperidinyl)-2,3-dihydro-1H-indole hydrochloride] | ≤ 10 nM
2 | O=S(=O)(c1ccccc1)c1ccc2c(c1)CCN2C1CCCNCC1 (stereo not drawn) [Example E16a, 1-(Hexahydro-1H-azepin-4-yl)-5-(phenylsulfonyl)-2,3-dihydro-1H-indole] | ≤ 10 nM
3 | O=S(=O)(c1ccccc1)c1ccc2c(c1)CCN2C1CCNC1 (stereo not drawn) [Example E17a, 5-(Phenylsulfonyl)-1-(3-pyrrolidinyl)-2,3-dihydro-1H-indole] | ≤ 10 nM
4 | CCN1CCC(N2CCc3cc(S(=O)(=O)c4ccccc4F)ccc32)CC1 [Example E58, 5-[(2-Fluorophenyl)sulfonyl]-1-(1-ethyl-4-piperidinyl)-2,3-dihydro-1H-indole hydrochloride] | ≤ 10 nM
5 | O=S(=O)(c1ccc(F)c(F)c1)c1ccc2c(c1)CCN2C1CCNCC1 [Example E25, 5-[(3,4-Difluorophenyl)sulfonyl]-1-(4-piperidinyl)-2,3-dihydro-1H-indole hydrochloride] | ≤ 10 nM
6 | Cc1nn(C)c(C)c1S(=O)(=O)c1ccc2c(c1)CCN2C1CCNCC1 [Example E29, 1-(4-Piperidinyl)-5-[(1,3,5-trimethyl-1H-pyrazol-4-yl)sulfonyl]-2,3-dihydro-1H-indole hydrochloride] | < 316 nM
7 | CN1CCC(N2CCc3cc(S(=O)(=O)c4cccc(Cl)c4)ccc32)CC1 [Example E53, 5-[(3-Chlorophenyl)sulfonyl]-1-(1-methyl-4-piperidinyl)-2,3-dihydro-1H-indole hydrochloride] | ≤ 10 nM
8 | CN1CCC(N2CCc3cc(S(=O)(=O)c4ccccc4)ccc32)CC1 [Example E4, 1-(1-Methyl-4-piperidinyl)-5-(phenylsulfonyl)-2,3-dihydro-1H-indole hydrochloride] | ≤ 10 nM
9 | CCN1CCC(N2CCc3cc(S(=O)(=O)c4ccccc4)ccc32)CC1 [Example E39, 1-(1-Ethyl-4-piperidinyl)-5-(phenylsulfonyl)-2,3-dihydro-1H-indole hydrochloride] | ≤ 10 nM
10 | CC(C)N1CCC(N2CCc3cc(S(=O)(=O)c4cccc(F)c4)ccc32)CC1 [Example E57, 5-[(3-Fluorophenyl)sulfonyl]-1-(1-(1-methylethyl)-4-piperidinyl)-2,3-dihydro-1H-indole hydrochloride] | ≤ 10 nM
11 | CN1CCC(n2ccc3cc(S(=O)(=O)c4ccccc4)ccc32)CC1 [Example E2, 1-(1-Methyl-4-piperidinyl)-5-(phenylsulfonyl)-1H-indole hydrochloride] | ≤ 10 nM
12 | CCN1CCC(n2ccc3cc(S(=O)(=O)c4cc(F)cc(F)c4)ccc32)CC1 [Example E35, 1-(1-Ethyl-4-piperidinyl)-5-[(3,5-difluorophenyl)sulfonyl]-1H-indole hydrochloride] | ≤ 10 nM
13 | CCN1CCC(N2CCc3cc(S(=O)(=O)c4cc(F)ccc4F)ccc32)CC1 [Example E42, 5-[(2,5-Difluorophenyl)sulfonyl]-1-(1-ethyl-4-piperidinyl)-2,3-dihydro-1H-indole hydrochloride] | ≤ 10 nM
14 | N#Cc1cccc(S(=O)(=O)c2ccc3c(c2)CCN3C2CCNCC2)c1 [Example E21, 3-{[1-(4-Piperidinyl)-2,3-dihydro-1H-indol-5-yl]sulfonyl}benzonitrile hydrochloride] | ≤ 10 nM
15 | O=S(=O)(c1ccc2c(c1)CCN2C1CCNCC1)c1cc(F)ccc1F [Example E27, 5-[(2,5-Difluorophenyl)sulfonyl]-1-(4-piperidinyl)-2,3-dihydro-1H-indole hydrochloride] | ≤ 10 nM
16 | CC1(N2CCc3cc(S(=O)(=O)c4ccccc4)ccc32)CCNCC1 [Example E7, 1-(4-Methyl-4-piperidinyl)-5-(phenylsulfonyl)-2,3-dihydro-1H-indole hydrochloride] | < 316 nM
17 | CC(C)N1CCC(N2CCc3cc(S(=O)(=O)c4ccccc4)ccc32)CC1 [Example E36, 1-[1-(1-Methylethyl)-4-piperidinyl]-5-(phenylsulfonyl)-2,3-dihydro-1H-indole] | ≤ 10 nM
18 | CN1CCC(N2CCc3cc(S(=O)(=O)c4ccccc4F)ccc32)CC1 [Example E48, 5-[(2-Fluorophenyl)sulfonyl]-1-(1-methyl-4-piperidinyl)-2,3-dihydro-1H-indole hydrochloride] | ≤ 10 nM
19 | Cc1nc(C)c(S(=O)(=O)c2ccc3c(c2)CCN3C2CCNCC2)s1 [Example E28, 5-[(2,4-Dimethyl-1,3-thiazol-5-yl)sulfonyl]-1-(4-piperidinyl)-2,3-dihydro-1H-indole hydrochloride] | ≤ 10 nM
20 | O=S(=O)(c1ccccc1)c1ccc2c(c1)CCN2C1CCNCC1 [Example E3a, 5-(Phenylsulfonyl)-1-(4-piperidinyl)-2,3-dihydro-1H-indole hydrochloride] | ≤ 10 nM
21 | Cc1ccc(S(=O)(=O)c2ccc3c(c2)CCN3C2CCNCC2)cc1 [Example E11, 5-[(4-methylphenyl)sulfonyl]-1-(4-piperidinyl)-2,3-dihydro-1H-indole] | ≤ 10 nM
22 | O=S(=O)(c1ccc(Cl)cc1)c1ccc2c(c1)CCN2C1CCNCC1 [Example E13, 5-[(4-Chlorophenyl)sulfonyl]-1-(4-piperidinyl)-2,3-dihydro-1H-indole hydrochloride] | ≤ 10 nM
23 | CCCN1CCC(N2CCc3cc(S(=O)(=O)c4ccccc4)ccc32)CC1 [Example E40, 5-(Phenylsulfonyl)-1-(1-propyl-4-piperidinyl)-2,3-dihydro-1H-indole hydrochloride] | ≤ 10 nM
24 | O=S(=O)(c1cc(F)cc(F)c1)c1ccc2c(c1)CCN2C1CCNCC1 [Example E10, 5-[(3,5-Difluorophenyl)sulfonyl]-1-(4-piperidinyl)-2,3-dihydro-1H-indole hydrochloride] | ≤ 10 nM
25 | CCN1CCC(N2CCc3cc(S(=O)(=O)c4cc(F)cc(F)c4)ccc32)CC1 [Example E51, 5-[(3,5-Difluorophenyl)sulfonyl]-1-(1-ethyl-4-piperidinyl)-2,3-dihydro-1H-indole hydrochloride] | ≤ 10 nM
26 | CCN1CCC(N2CCc3cc(S(=O)(=O)c4cccc(C)c4)ccc32)CC1 [Example E63, 5-[(3-Methylphenyl)sulfonyl]-1-(1-ethyl-4-piperidinyl)-2,3-dihydro-1H-indole hydrochloride] | ≤ 10 nM
27 | CCN1CCC(N2CCc3cc(S(=O)(=O)c4cccc(F)c4)ccc32)CC1 [Example E55, 5-[(3-Fluorophenyl)sulfonyl]-1-(1-ethyl-4-piperidinyl)-2,3-dihydro-1H-indole hydrochloride] | ≤ 10 nM
